# Measurements taken from ChEMBL document CHEMBL3612050, “Dual inhibition of Staphylococcus aureus DNA gyrase and topoisomerase IV activity by phenylalanine-derived (Z)-5-arylmethylidene rhodanines” (Bioorg Med Chem, 2015).
# Columns and labels:
# Staphylococcus aureus = assay: Inhibition of Staphylococcus aureus Topoisomerase 4 assessed as inhibition of supercoiled pBR322 DNA relaxation after 30 mins by agarose gel electrophoresis
# [1] = molecular target: DNA gyrase (Staphylococcus aureus) (UniProt P0A0K8+P20831)
# DNA gyrase (Staphylococcus aureus), sequence (P0A0K8 2-644 limits assumed): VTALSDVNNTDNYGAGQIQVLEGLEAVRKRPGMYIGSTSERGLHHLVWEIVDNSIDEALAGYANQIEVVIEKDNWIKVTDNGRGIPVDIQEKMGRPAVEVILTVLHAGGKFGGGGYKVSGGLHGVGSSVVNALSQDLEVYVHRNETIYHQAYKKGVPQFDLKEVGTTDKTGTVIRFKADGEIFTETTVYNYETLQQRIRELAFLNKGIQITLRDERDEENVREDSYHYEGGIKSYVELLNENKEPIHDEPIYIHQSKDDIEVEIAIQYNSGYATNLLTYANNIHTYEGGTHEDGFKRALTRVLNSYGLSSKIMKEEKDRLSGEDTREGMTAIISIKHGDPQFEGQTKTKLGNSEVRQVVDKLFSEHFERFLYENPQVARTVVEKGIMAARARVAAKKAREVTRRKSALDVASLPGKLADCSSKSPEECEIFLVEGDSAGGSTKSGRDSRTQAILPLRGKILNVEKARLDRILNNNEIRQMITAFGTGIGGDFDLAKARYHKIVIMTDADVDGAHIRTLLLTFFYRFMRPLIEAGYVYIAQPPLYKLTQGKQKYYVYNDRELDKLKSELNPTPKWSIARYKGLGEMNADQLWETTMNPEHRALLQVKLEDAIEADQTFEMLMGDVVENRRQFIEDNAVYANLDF
# DNA gyrase (Staphylococcus aureus), sequence (P20831 whole entry partner): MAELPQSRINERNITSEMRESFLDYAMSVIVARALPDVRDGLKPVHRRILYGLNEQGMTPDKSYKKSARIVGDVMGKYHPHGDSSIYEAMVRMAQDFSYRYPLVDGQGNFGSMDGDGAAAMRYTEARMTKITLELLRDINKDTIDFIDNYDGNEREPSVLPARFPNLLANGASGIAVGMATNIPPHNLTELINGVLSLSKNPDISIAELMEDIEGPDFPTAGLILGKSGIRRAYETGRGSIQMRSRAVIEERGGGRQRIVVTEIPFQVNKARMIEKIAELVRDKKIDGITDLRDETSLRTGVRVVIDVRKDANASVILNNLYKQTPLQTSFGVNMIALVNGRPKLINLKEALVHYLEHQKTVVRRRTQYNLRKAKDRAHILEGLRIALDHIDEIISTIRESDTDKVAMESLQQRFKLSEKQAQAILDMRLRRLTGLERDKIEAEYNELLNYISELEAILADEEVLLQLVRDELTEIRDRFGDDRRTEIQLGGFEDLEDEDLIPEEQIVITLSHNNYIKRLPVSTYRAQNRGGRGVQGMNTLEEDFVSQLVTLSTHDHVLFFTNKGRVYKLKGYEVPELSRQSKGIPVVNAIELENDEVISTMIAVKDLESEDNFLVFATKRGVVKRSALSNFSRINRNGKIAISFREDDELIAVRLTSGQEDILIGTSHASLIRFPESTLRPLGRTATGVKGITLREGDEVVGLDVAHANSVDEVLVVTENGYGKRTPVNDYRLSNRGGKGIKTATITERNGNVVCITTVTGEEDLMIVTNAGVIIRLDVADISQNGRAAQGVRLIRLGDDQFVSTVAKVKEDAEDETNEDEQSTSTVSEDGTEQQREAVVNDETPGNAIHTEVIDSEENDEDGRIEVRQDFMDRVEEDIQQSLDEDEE
# Description: Inhibition of Staphylococcus aureus DNA gyrase assessed as inhibition of negative supercoiling of pBR322 DNA after 30 mins by agarose gel electrophoresis
Compound,MIC (Staphylococcus aureus) [µM],MIC [1] [µM]
O=C(O)[C@H](Cc1ccccc1)N1C(=O)/C(=C/c2cccc(Oc3ccccc3)c2)SC1=S,10,50
CO[C@@H]1[C@@H](OC(N)=O)[C@@H](O)[C@H](Oc2ccc3c(O)c(NC(=O)c4ccc(O)c(CC=C(C)C)c4)c(=O)oc3c2C)OC1(C)C,2.5,
O=C(O)[C@H](Cc1ccccc1)N1C(=O)/C(=C/c2cccc(Cc3ccccc3)c2)SC1=S,17.5,25
O=C(O)[C@H](Cc1ccccc1)N1C(=O)/C(=C/c2cccc(Cc3ccc(Cl)c(Cl)c3)c2)SC1=S,0.75,7.5
O=C(O)[C@H](Cc1ccccc1)N1C(=O)/C(=C/c2cccc(Oc3cccc(Cl)c3)c2)SC1=S,7.5,10
O=C(O)[C@H](Cc1ccccc1)N1C(=O)/C(=C/c2cccc(OCc3ccccc3)c2)SC1=S,17.5,25
O=C(O)[C@H](Cc1ccccc1)N1C(=O)/C(=C/c2cccc(OC/C=C\c3ccccc3)c2)SC1=S,5,10
O=C(O)[C@H](Cc1ccccc1)N1C(=O)/C(=C/c2cccc(-c3ccccc3)c2)SC1=S,0.5,17.5
O=C(O)[C@@H](Cc1ccccc1)N1C(=O)/C(=C/c2cccc(Oc3ccc(F)cc3)c2)SC1=S,5,17.5
O=C(c1ccccc1)c1cccc(/C=C2\SC(=S)N([C@@H](Cc3ccccc3)C(=O)O)C2=O)c1,50,50
O=C(O)[C@H](Cc1ccccc1)N1C(=O)/C(=C/c2cccc(Oc3ccc(Cl)c(Cl)c3)c2)SC1=S,2.5,5
O=C(O)[C@H](Cc1ccccc1)N1C(=O)/C(=C/c2cccc(-c3ccc(Cl)c(Cl)c3)c2)SC1=S,10,5
